Source: patent publication US20250353891A1 (MEDIMMUNE LIMITED, priority 2022, published 2025)
pEC50: −log10 of the molar value. Starred links: 1 amine or outer side, 2 acyl side, 3 side chain; linkers in the order of their positions; H or OH if unused. Non-standard residues stand in square brackets, D forms with d. Residues, ends and D or L forms follow the SMILES beside them. Groups on a side chain read outwards from the residue. *: point of attachment. C20 diacid = O=C(O)CCCCCCCCCCCCCCCCCCC(=O)*; C18 diacid = O=C(O)CCCCCCCCCCCCCCCCC(=O)*; γGlu = O=C(O)[C@H](CCC(=O)[*:2])N[*:1]; αMeF = C[C@](N)(Cc1ccccc1)C(=O)O; AEEA = NCCOCCOCC(=O)O; Aib = CC(C)(N)C(=O)O

Assays:
[1] = molecular target: human GLP-1 receptor (hGLP-1R) (Homo sapiens, UniProt P43220); assay: cAMP production (HTRF) in CHO cells expressing hGLP-1R; assay type: cell-based; parameters: expressed in transfected cells; conditions: for pEC50: Table 6, peptides modified at position 17, cAMP in CHO hGLP-1R cells, geometric mean, read-out: hGLP-1R EC50; for % Relative Potency Ratio: Table 6, % GLP-1R activity relative to GLP-1 / % GlucR activity relative to glucagon
Outline: (§1)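 Cells were resuspended in assay buffer at batch-optimized density, typically 1×10^5 cells/mL for hGLP-1R and 2×10^5 cells/mL for hGCGR. After 30 min incubation at room temperature with compound, cAMP was measured by two-step HTRF. EC50 values came from 4-parameter logistic fits of % Delta F.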

[2] = molecular target: human glucagon receptor (hGCGR) (Homo sapiens, UniProt P47871); assay: cAMP production (HTRF) in CHO cells expressing hGCGR; assay type: cell-based; parameters: expressed in transfected cells; conditions: Table 6, peptides modified at position 17; cAMP in CHO hGCGR cells; geometric mean; read-out: hGluc-R EC50
Outline: as §1

human glucagon receptor (hGCGR), sequence (P47871 26-477): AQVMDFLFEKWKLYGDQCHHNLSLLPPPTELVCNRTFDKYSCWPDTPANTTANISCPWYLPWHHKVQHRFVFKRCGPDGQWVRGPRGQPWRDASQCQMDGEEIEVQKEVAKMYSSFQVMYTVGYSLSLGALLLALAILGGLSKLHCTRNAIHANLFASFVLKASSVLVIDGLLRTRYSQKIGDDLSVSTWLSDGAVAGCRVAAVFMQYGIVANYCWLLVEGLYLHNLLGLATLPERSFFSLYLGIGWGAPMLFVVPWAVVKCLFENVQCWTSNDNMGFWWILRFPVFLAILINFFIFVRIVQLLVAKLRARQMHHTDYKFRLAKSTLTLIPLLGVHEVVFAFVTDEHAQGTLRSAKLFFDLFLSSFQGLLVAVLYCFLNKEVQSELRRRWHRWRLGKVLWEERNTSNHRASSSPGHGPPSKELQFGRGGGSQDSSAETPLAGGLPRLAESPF
human GLP-1 receptor (hGLP-1R), sequence (P43220 24-463): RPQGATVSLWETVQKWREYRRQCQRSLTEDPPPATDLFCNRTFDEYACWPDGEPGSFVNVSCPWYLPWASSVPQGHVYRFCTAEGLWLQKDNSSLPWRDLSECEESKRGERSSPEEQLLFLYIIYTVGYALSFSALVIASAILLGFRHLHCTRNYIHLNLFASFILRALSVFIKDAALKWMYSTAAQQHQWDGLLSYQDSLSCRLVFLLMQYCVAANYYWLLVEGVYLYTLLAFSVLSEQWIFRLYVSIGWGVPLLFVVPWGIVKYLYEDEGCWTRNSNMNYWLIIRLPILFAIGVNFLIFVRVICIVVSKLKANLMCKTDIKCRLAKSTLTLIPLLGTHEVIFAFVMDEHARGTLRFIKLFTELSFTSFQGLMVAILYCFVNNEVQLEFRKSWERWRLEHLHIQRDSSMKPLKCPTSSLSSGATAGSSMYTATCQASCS

Row | SMILES | pEC50 [1] | % Relative Potency Ratio [1] | pEC50 [2]
1 | CC(C)C[C@H](NC(=O)[C@H](Cc1c[nH]c2ccccc12)NC(=O)[C@H](CCCNC(=N)N)NC(=O)[C@@H](NC(=O)[C@H](Cc1ccccc1)NC(=O)[C@H](CC(=O)O)NC(=O)[C@H](CCC(N)=O)NC(=O)[C@H](C)NC(=O)[C@H](CCCNC(=N)N)NC(=O)[C@H](CCCCNC(=O)COCCOCCNC(=O)COCCOCCNC(=O)CC[C@H](NC(=O)CCCCCCCCCCCCCCCCCCC(=O)O)C(=O)O)NC(=O)[C@@H](NC(=O)[C@H](CC(=O)O)NC(=O)[C@H](CC(C)C)NC(=O)[C@](C)(Cc1ccccc1)NC(=O)[C@H](CCCCN)NC(=O)[C@H](CO)NC(=O)[C@@H](NC(=O)[C@H](CC(=O)O)NC(=O)[C@H](CO)NC(=O)[C@@H](NC(=O)[C@H](Cc1ccccc1)NC(=O)[C@@H](NC(=O)CNC(=O)[C@H](CCC(N)=O)NC(=O)C(C)(C)NC(=O)[C@@H](N)Cc1c[nH]cn1)[C@@H](C)O)[C@@H](C)O)C(C)C)[C@@H](C)O)C(C)C)C(=O)N[C@@H](CC(C)C)C(=O)N[C@@H](CCC(=O)O)C(=O)NC(C)(C)C(=O)N[C@@H](CCCCN)C(N)=O [Peptide 479] (H-H[Aib]QGTFTSDVSK[αMeF]LDTK([AEEA-AEEA-γGlu-C20 diacid])RAQDFVRWLLE[Aib]K-NH2; N-terminus assumed) | 10.47 | 12.0 | 9.68
2 | CC(C)C[C@H](NC(=O)[C@H](Cc1c[nH]c2ccccc12)NC(=O)[C@H](CCC(N)=O)NC(=O)[C@@H](NC(=O)[C@H](Cc1ccccc1)NC(=O)[C@H](CC(=O)O)NC(=O)[C@H](CCCNC(=N)N)NC(=O)[C@H](C)NC(=O)[C@H](CCCNC(=N)N)NC(=O)[C@H](CCCCNC(=O)COCCOCCNC(=O)COCCOCCNC(=O)CC[C@H](NC(=O)CCCCCCCCCCCCCCCCC(=O)O)C(=O)O)NC(=O)[C@@H](NC(=O)[C@H](CC(=O)O)NC(=O)[C@H](CC(C)C)NC(=O)[C@](C)(Cc1ccccc1)NC(=O)[C@H](CCCCN)NC(=O)[C@H](CO)NC(=O)[C@@H](NC(=O)[C@H](CC(=O)O)NC(=O)[C@H](CO)NC(=O)[C@@H](NC(=O)[C@H](Cc1ccccc1)NC(=O)[C@@H](NC(=O)CNC(=O)[C@H](CCC(N)=O)NC(=O)C(C)(C)NC(=O)[C@@H](N)Cc1c[nH]cn1)[C@@H](C)O)[C@@H](C)O)C(C)C)[C@@H](C)O)C(C)C)C(=O)N[C@@H](CC(C)C)C(=O)N[C@@H](CCC(=O)O)C(=O)NC(C)(C)C(=O)N[C@@H](CCCCN)C(N)=O [Peptide 480] (H-H[Aib]QGTFTSDVSK[αMeF]LDTK([AEEA-AEEA-γGlu-C18 diacid])RARDFVQWLLE[Aib]K-NH2; N-terminus assumed) | 10.90 | 21.4 | 9.87
3 | CC(C)C[C@H](NC(=O)[C@H](Cc1c[nH]c2ccccc12)NC(=O)[C@H](CCC(N)=O)NC(=O)[C@@H](NC(=O)[C@H](Cc1ccccc1)NC(=O)[C@H](CC(=O)O)NC(=O)[C@H](CCCNC(=N)N)NC(=O)[C@H](C)NC(=O)[C@H](CCCNC(=N)N)NC(=O)[C@H](CCCCNC(=O)COCCOCCNC(=O)COCCOCCNC(=O)CC[C@H](NC(=O)CCCCCCCCCCCCCCCCCCC(=O)O)C(=O)O)NC(=O)[C@@H](NC(=O)[C@H](CC(=O)O)NC(=O)[C@H](CC(C)C)NC(=O)[C@](C)(Cc1ccccc1)NC(=O)[C@H](CCCCN)NC(=O)[C@H](CO)NC(=O)[C@@H](NC(=O)[C@H](CC(=O)O)NC(=O)[C@H](CO)NC(=O)[C@@H](NC(=O)[C@H](Cc1ccccc1)NC(=O)[C@@H](NC(=O)CNC(=O)[C@H](CCC(N)=O)NC(=O)C(C)(C)NC(=O)[C@@H](N)Cc1c[nH]cn1)[C@@H](C)O)[C@@H](C)O)C(C)C)[C@@H](C)O)C(C)C)C(=O)N[C@@H](CC(C)C)C(=O)N[C@@H](CCC(=O)O)C(=O)NC(C)(C)C(=O)N[C@@H](CCCCN)C(N)=O [Peptide 481] (H-H[Aib]QGTFTSDVSK[αMeF]LDTK([AEEA-AEEA-γGlu-C20 diacid])RARDFVQWLLE[Aib]K-NH2; N-terminus assumed) | 10.28 | 13.3 | 9.46
4 | CC(C)C[C@H](NC(=O)[C@H](Cc1c[nH]c2ccccc12)NC(=O)[C@H](CCC(N)=O)NC(=O)[C@@H](NC(=O)[C@H](Cc1ccccc1)NC(=O)[C@H](CC(=O)O)NC(=O)[C@H](CCC(N)=O)NC(=O)[C@H](C)NC(=O)[C@H](CCCNC(=N)N)NC(=O)[C@H](CCCCNC(=O)COCCOCCNC(=O)COCCOCCNC(=O)CC[C@H](NC(=O)CCCCCCCCCCCCCCCCC(=O)O)C(=O)O)NC(=O)[C@H](CO)NC(=O)[C@H](CCC(=O)O)NC(=O)[C@H](CC(C)C)NC(=O)[C@](C)(Cc1ccccc1)NC(=O)[C@H](CCCCN)NC(=O)[C@H](CO)NC(=O)[C@@H](NC(=O)[C@H](CC(=O)O)NC(=O)[C@H](CO)NC(=O)[C@@H](NC(=O)[C@H](Cc1ccccc1)NC(=O)[C@@H](NC(=O)CNC(=O)[C@H](CCC(N)=O)NC(=O)C(C)(C)NC(=O)[C@@H](N)Cc1c[nH]cn1)[C@@H](C)O)[C@@H](C)O)C(C)C)C(C)C)C(=O)N[C@@H](CC(C)C)C(=O)NC(C)(C)C(=O)N[C@@H](CCC(=O)O)C(=O)O [Peptide 482] (H-H[Aib]QGTFTSDVSK[αMeF]LESK([AEEA-AEEA-γGlu-C18 diacid])RAQDFVQWLL[Aib]E-OH; N-terminus assumed) | 9.72 | 7.2 | 9.16
5 | CC(C)C[C@H](NC(=O)[C@H](Cc1c[nH]c2ccccc12)NC(=O)[C@H](CCC(N)=O)NC(=O)[C@@H](NC(=O)[C@H](Cc1ccccc1)NC(=O)[C@H](CC(=O)O)NC(=O)[C@H](CCC(N)=O)NC(=O)[C@H](C)NC(=O)[C@H](CCCNC(=N)N)NC(=O)[C@H](CCCCNC(=O)COCCOCCNC(=O)COCCOCCNC(=O)CC[C@H](NC(=O)CCCCCCCCCCCCCCCCC(=O)O)C(=O)O)NC(=O)[C@@H](NC(=O)[C@H](CC(=O)O)NC(=O)[C@H](CC(C)C)NC(=O)[C@](C)(Cc1ccccc1)NC(=O)[C@H](CCCCN)NC(=O)[C@H](CO)NC(=O)[C@@H](NC(=O)[C@H](CC(=O)O)NC(=O)[C@H](CO)NC(=O)[C@@H](NC(=O)[C@H](Cc1ccccc1)NC(=O)[C@@H](NC(=O)CNC(=O)[C@H](CCC(N)=O)NC(=O)C(C)(C)NC(=O)[C@@H](N)Cc1c[nH]cn1)[C@@H](C)O)[C@@H](C)O)C(C)C)[C@@H](C)O)C(C)C)C(=O)N[C@@H](CC(C)C)C(=O)NC(C)(C)C(=O)N[C@@H](CCC(=O)O)C(=O)O [Peptide 483] | 9.75 | 1.9 | 9.77
6 | CC(C)C[C@H](NC(=O)[C@H](Cc1c[nH]c2ccccc12)NC(=O)[C@H](CCC(N)=O)NC(=O)[C@@H](NC(=O)[C@H](Cc1ccccc1)NC(=O)[C@H](CC(=O)O)NC(=O)[C@H](CCC(N)=O)NC(=O)[C@H](C)NC(=O)[C@H](CCCNC(=N)N)NC(=O)[C@H](CCCCNC(=O)COCCOCCNC(=O)COCCOCCNC(=O)CC[C@H](NC(=O)CCCCCCCCCCCCCCCCCCC(=O)O)C(=O)O)NC(=O)[C@@H](NC(=O)[C@H](CC(=O)O)NC(=O)[C@H](CC(C)C)NC(=O)[C@](C)(Cc1ccccc1)NC(=O)[C@H](CCCCN)NC(=O)[C@H](CO)NC(=O)[C@@H](NC(=O)[C@H](CC(=O)O)NC(=O)[C@H](CO)NC(=O)[C@@H](NC(=O)[C@H](Cc1ccccc1)NC(=O)[C@@H](NC(=O)CNC(=O)[C@H](CCC(N)=O)NC(=O)C(C)(C)NC(=O)[C@@H](N)Cc1c[nH]cn1)[C@@H](C)O)[C@@H](C)O)C(C)C)[C@@H](C)O)C(C)C)C(=O)N[C@@H](CC(C)C)C(=O)NC(C)(C)C(=O)N[C@@H](CCC(=O)O)C(=O)O [Peptide 484] (H-H[Aib]QGTFTSDVSK[αMeF]LDTK([AEEA-AEEA-γGlu-C20 diacid])RAQDFVQWLL[Aib]E-OH; N-terminus assumed) | 9.47 | 1.0 | 9.77
7 | CC(C)C[C@H](NC(=O)[C@H](Cc1c[nH]c2ccccc12)NC(=O)[C@H](CCC(N)=O)NC(=O)[C@@H](NC(=O)[C@H](Cc1ccccc1)NC(=O)[C@H](CC(=O)O)NC(=O)[C@H](CCC(N)=O)NC(=O)[C@H](C)NC(=O)[C@H](CCCNC(=N)N)NC(=O)[C@H](CCCCNC(=O)COCCOCCNC(=O)COCCOCCNC(=O)CC[C@H](NC(=O)CCCCCCCCCCCCCCCCCCC(=O)O)C(=O)O)NC(=O)[C@@H](NC(=O)[C@H](CC(=O)O)NC(=O)[C@H](CC(C)C)NC(=O)[C@](C)(Cc1ccccc1)NC(=O)[C@H](CCCCN)NC(=O)[C@H](CO)NC(=O)[C@@H](NC(=O)[C@H](CC(=O)O)NC(=O)[C@H](CO)NC(=O)[C@@H](NC(=O)[C@H](Cc1ccccc1)NC(=O)[C@@H](NC(=O)CNC(=O)[C@H](CCC(N)=O)NC(=O)C(C)(C)NC(=O)[C@@H](N)Cc1c[nH]cn1)[C@@H](C)O)[C@@H](C)O)C(C)C)[C@@H](C)O)C(C)C)C(=O)N[C@@H](CC(C)C)C(=O)NC(C)(C)C(=O)N[C@@H](CCC(=O)O)C(N)=O [Peptide 485] (H-H[Aib]QGTFTSDVSK[αMeF]LDTK([AEEA-AEEA-γGlu-C20 diacid])RAQDFVQWLL[Aib]E-NH2; N-terminus assumed) | 9.66 | 0.8 | 10.04
8 | CC(C)C[C@H](NC(=O)[C@H](CC(=O)O)NC(=O)[C@H](CC(C)C)NC(=O)[C@](C)(Cc1ccccc1)NC(=O)[C@H](CCCCN)NC(=O)[C@H](CO)NC(=O)[C@@H](NC(=O)[C@H](CC(=O)O)NC(=O)[C@H](CO)NC(=O)[C@@H](NC(=O)[C@H](Cc1ccccc1)NC(=O)[C@@H](NC(=O)CNC(=O)[C@H](CCC(N)=O)NC(=O)C(C)(C)NC(=O)[C@@H](N)Cc1c[nH]cn1)[C@@H](C)O)[C@@H](C)O)C(C)C)C(=O)N[C@@H](CCCCNC(=O)COCCOCCNC(=O)COCCOCCNC(=O)CC[C@H](NC(=O)CCCCCCCCCCCCCCCCCCC(=O)O)C(=O)O)C(=O)N[C@@H](CCCNC(=N)N)C(=O)N[C@@H](C)C(=O)N[C@@H](CCC(N)=O)C(=O)N[C@@H](CC(=O)O)C(=O)N[C@@H](Cc1ccccc1)C(=O)N[C@H](C(=O)N[C@@H](CCCNC(=N)N)C(=O)N[C@@H](Cc1c[nH]c2ccccc12)C(=O)N[C@@H](CC(C)C)C(=O)N[C@@H](CC(C)C)C(=O)NC(C)(C)C(=O)N[C@@H](CCC(=O)O)C(=O)O)C(C)C [Peptide 486] | 9.38 | 0.8 | 9.78
